Reference: US9234230B2, “Screening method and compounds for modulating telomerase activity” (The Wistar Institute, priority 2010, dated 2016)

Test system: TERT protein
Test: Fluorescence polarization binding assay (inhibitory activity of selected Table 9 compounds)
Set-up: species or system Tribolium castaneum
Settings: TERT-Chim21m complex 250 nM, cyanine 5-dCTP 10 nM, footnote: observed value corresponds to 50% of the actual inhibition value; for Inhibition at 5 μM (%)*: compound 5 μM; for Inhibition at 50 μM (%)*: compound 50 μM
Experimental: The TERT protein was expressed and purified as described herein. Protein was concentrated to 4.72 mg ml-l using an AMICON 30K cutoff filter (Millipore) and stored at −80° C. for binding assays.
For the binding assay, TERT protein was diluted to a 500 nM concentration in a solution of 50 mM Tris-HCl, pH 7.5, 200 mM KCl, and 20% glycerol. A 1.2-fold molar excess of the Chim21m RNA-DNA hybrid (Integrated DNA Technologies), containing the template for telomere extension (5′-rCrUrG rArCrC rUrGrA rCTT CGG TCA GGT-3′; SEQ ID NO:19), was then added to these samples and kept on ice. The cyanine 5-dCTP (Perkin Elmer) for the binding study was made up to a 20 nM concentration in sterile, RNase, DNase free water with […].
Compound screens were carried out as 30.5 μl reactions in a 384-well, round bottom plate (Thermo). Fifteen μl of TERT-Chim21m complex was first added to each well. Then 0.5 μl of library compound (ChemBridge) was added to this solution. Finally, 15 μl of the nucleotide-MgCl2 sample was added, and the solution mixed to provide final concentrations of 250 nM protein-nucleic acid, 10 nM cyanine 5-dCTP, and […]. Final compound concentrations were 50 μM and 5 μM. All additions were completed using a Janus 96/384 Modular Dispensing Tool (Perkin Elmer), performed in triplicate, and equilibrated for 40 minutes. Fluorescence polarization was measured at λex=620 nm and λem=688 nm on an EnVision Xcite Multilabel plate reader (Perkin Elmer). Polarization was calculated using the standard equation: P=(V−H)/(V+H), where P denotes polarization, V denotes vertical emission intensity, and H denotes horizontal emission intensity.

| Inhibition at 5 μM (%)* [%] | Inhibition at 50 μM (%)* [%] | Structure (SMILES) |
| --- | --- | --- |
| 4.74 | 27.38 | CC(C(=O)Nn1cnnc1)N1C(=O)c2ccccc2C1=O (stereo not drawn) [2-(1,3-dioxo-1,3-dihydro-2H-isoindol-2-yl)-N-4H-1,2,4-triazol-4-ylpropanamide] |
| 16.14 | 30.92 | CCOc1cc(CNCc2ccco2)cc(Br)c1OCC(N)=O.Cl [2-(2-bromo-6-ethoxy-4-{[(2-furylmethyl)amino]methyl}phenoxy)acetamide hydrochloride] |
| 12.21 | 27.65 | COc1cc(CNCCc2ccccc2)cc(Br)c1OCC(N)=O [2-(2-bromo-6-methoxy-4-{[(2-phenylethyl)amino]methyl}phenoxy)acetamide] |
| 17.68 | 49.10 | CCOc1cc(CNCc2cccs2)cc(Cl)c1OCC(N)=O.Cl [2-(2-chloro-6-ethoxy-4-{[(2-thienylmethyl)amino]methyl}phenoxy)acetamide hydrochloride] |
| 14.87 | 38.78 | CCOc1cc(CNCc2cccnc2)cc(Cl)c1OCC(N)=O.Cl [2-(2-chloro-6-ethoxy-4-{[(3-pyridinylmethyl)amino]methyl}phenoxy)acetamide hydrochloride] |
| 15.94 | 29.33 | COc1cc(CNc2ccc3[nH]c(=O)[nH]c3c2)cc(Cl)c1OCC(N)=O [2-(2-chloro-6-methoxy-4-{[(2-oxo-2,3-dihydro-1H-benzimidazol-5-yl)amino]methyl}phenoxy)acetamide] |
| 10.94 | 41.26 | COc1cc(CNCc2cccs2)cc(Cl)c1OCC(N)=O.Cl [2-(2-chloro-6-methoxy-4-{[(2-thienylmethyl)amino]methyl}phenoxy)acetamide hydrochloride] |
| 23.05 | 45.56 | COc1cc(CNCc2ccncc2)cc(Cl)c1OCC(N)=O.Cl [2-(2-chloro-6-methoxy-4-{[(4-pyridinylmethyl)amino]methyl}phenoxy)acetamide hydrochloride] |
| 18.27 | 30.23 | COc1cc(CNCCN2CCOCC2)cc(Br)c1OCC(N)=O.Cl.Cl [2-[2-bromo-6-methoxy-4-({[2-(4-morpholinyl)ethyl]amino}methyl)phenoxy]acetamide dihydrochloride] |
| 10.94 | 29.35 | Cc1ccc(C(=O)Nn2cnnc2)c(Cl)c1 [2-chloro-4-methyl-N-4H-1,2,4-triazol-4-ylbenzamide] |
| 17.00 | 31.30 | CNCc1cc(Cl)c(OCC(N)=O)c(OC)c1.Cl [2-{2-chloro-6-methoxy-4-[(methylamino)methyl]phenoxy}acetamide hydrochloride] |
| 13.73 | 35.18 | COc1cc(CNC2C3CC4CC(C3)CC2C4)cc(Cl)c1OCC(N)=O (stereo not drawn) [2-{4-[(2-adamantylamino)methyl]-2-chloro-6-methoxyphenoxy}acetamide] |
| 4.96 | 29.96 | COc1cc(CNCc2ccccc2)cc(Cl)c1OCC(N)=O.Cl [2-{4-[(benzylamino)methyl]-2-chloro-6-methoxyphenoxy}acetamide hydrochloride] |
| 18.11 | 36.58 | NC(=O)CCN1C(=O)c2cccc3cccc(c23)C1=O [3-(1,3-dioxo-1H-benzo[de]isoquinolin-2(3H)-yl)propanamide] |
| 11.97 | 30.04 | O=C(Nn1cnnc1)c1cc(Br)ccc1Cl [5-bromo-2-chloro-N-4H-1,2,4-triazol-4-ylbenzamide] |
| 6.67 | 29.71 | CC(O)CNC(=O)C(=O)Nc1ccc2c(c1)OCO2 (stereo not drawn) [N-1,3-benzodioxol-5-yl-N′-(2-hydroxypropyl)ethanediamide] |
| 13.44 | 30.42 | O=C(NCCCO)C1CCCN(S(=O)(=O)c2ccc3ccccc3c2)C1 (stereo not drawn) [N-(3-hydroxypropyl)-1-(2-naphthylsulfonyl)-3-piperidinecarboxamide] |
| 19.23 | 39.41 | CCOC(=O)c1c(NC(=O)/C=C/C(N)=O)sc(C)c1C [ethyl 2-[(4-amino-4-oxo-2-butenoyl)amino]-4,5-dimethyl-3-thiophenecarboxylate] |
